Results taken from US20240239811A1, “5-(5-(PIPERIDIN-4-YL)THIENO[3,2-C]PYRAZOL-2-YL]INDAZOLE DERIVATIVES AND RELATED COMPOUNDS AS MODULATORS FOR SPLICING NUCLEIC ACIDS AND FOR THE T” (REMIX THERAPEUTICS INC., priority 2020, published 2024).
pIC50: −log10 of the molar value. Counter-ions that a name gives are not always drawn.

What was measured:
Assay type in all cases: cell-based
[1] = test system: HTT mRNA; assay: Splicing assay (RT-qPCR) monitoring HTT splice variants, canonical (CJ) and alternative (AJ) junction; conditions: 50% response, A673 or K562 cell line, 24 hours; for pIC50: decrease in CJ mRNA; for AC50: increase in AJ mRNA
Method in brief: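 A673 or K562 cells were treated 24 h with an 11-point 3-fold dilution series (top 10 uM, ≤0.25% DMSO) at 37 °C. HTT canonical- and alternative-junction mRNAs were quantified in lysates by one-step RT-qPCR. Values were normalized to PPIA (A673) or GAPDH/GUSB (K562).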

[2] = test system: HTT CJ mRNA; assay: Gene panel canonical junction qPCR assay, HTT; conditions: Table 6, decrease in CJ mRNA, read-out: HTT IC50 (decrease in CJ mRNA levels)
Method in brief: (§1)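 A673 or K562 cells treated 24 h at 37° C with 11-point 3-fold dilutions, top 10 uM, DMSO ≤0.25%. CJ mRNA quantified by RT-qPCR with exon-junction-spanning probeset, ΔΔCt vs housekeeping gene (GAPDH, GUSB or PPIA) and DMSO control. IC50 from 4-parameter fit of percentage CJ decrease.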

[3] = test system: SMN2 CJ mRNA; assay: Gene panel canonical junction qPCR assay, SMN2; conditions: Table 6, decrease in CJ mRNA, read-out: SMN2 IC50 (decrease in CJ mRNA levels)
Method in brief: as §1

[4] = test system: Target C CJ mRNA; assay: Gene panel canonical junction qPCR assay, Target C; conditions: Table 6, decrease in CJ mRNA, read-out: Target C IC50 (decrease in CJ mRNA levels)
Method in brief: as §1

SMILES | pIC50 [1] | AC50 [1] [nM] | pIC50 [2] | pIC50 [3] | pIC50 [4]
Cn1cc2cc(-c3nc4sc(C5(O)CCNCC5)cc4s3)cc(F)c2n1 [Compound 236, 4-[2-(7-fluoro-2-methylindazol-5-yl)thieno[2,3-d] [1,3]thiazol-5-yl] piperidin-4-ol] | 6.00 to 7.00 | 1000 to 10000 | 6.00 to 7.00 | 6.00 to 7.00 | 5.00 to 6.00
Cc1cc(-c2nc3sc(C4CCNCC4)cc3s2)cc2cn(C)nc12 [Compound 238, 2,7-dimethyl-5-[5-(piperidin-4-yl)thieno[2,3-d][1,3]thiazol-2-yl]indazole] | > 7.00 | < 100 | > 7.00 | > 7.00 | 6.00 to 7.00
Cn1cc2cc(-c3cc4cn(C5CCNCC5)nc4s3)c(O)c(F)c2n1 [Compound 215] | 6.00 to 7.00 | 100 to 1000 | 6.00 to 7.00 | > 7.00 | 6.00 to 7.00
Cn1cc2cc(-c3nc4sc(N5CCC(NC(C)(C)C)C5)cc4s3)cc(F)c2n1 (stereo not shown) [Compound 143, N-tert-butyl-1-[2-(7-fluoro-2-methylindazol-5-yl)thieno[2,3-d][1,3]thiazol-5-yl]pyrrolidin-3-amine] | 5.00 to 6.00 | 1000 to 10000 | 5.00 to 6.00 | 6.00 to 7.00 | 5.00 to 6.00
Cc1cn2nc(-c3cc4cn(C5CCNCC5)nc4s3)c(O)c2c(C)n1 [Compound 213, 4,6-dimethyl-2-[2-(piperidin-4-yl)thieno[2,3-c]pyrazol-5-yl]pyrazolo[1,5-a]pyrazin-3-ol hydrochloride] | 5.00 to 6.00 | 1000 to 10000 | 5.00 to 6.00 | 5.00 to 6.00 | < 5.00
CN1CCC(n2cc3cc(-c4cc(F)c5nn(C)cc5c4)sc3n2)CC1 [Compound 150, 7-fluoro-2-methyl-5-[2-(1-methylpiperidin-4-yl)thieno[2,3-c]pyrazol-5-yl]indazole] | 6.00 to 7.00 | 100 to 1000 | 6.00 to 7.00 | > 7.00 | 6.00 to 7.00
Cn1cc2cc(-c3nc4sc(N5CCNCC5)c(Cl)c4s3)cc(F)c2n1 [Compound 147] | 6.00 to 7.00 | 100 to 1000 | 6.00 to 7.00 | > 7.00 | 5.00 to 6.00
Cc1cn2nc(-n3cc4sc(N5CC6(CN(C)C6)C5)cc4n3)cc(C)c2n1 [Compound 188, 2-(2-{2,8-dimethylimidazo[1,2-b]pyridazin-6-yl}thieno [3,2-c]pyrazol-5-yl)-6-methyl-2,6-diazaspiro [3.3] heptane] | 6.00 to 7.00 | 1000 to 10000 | 6.00 to 7.00 | 6.00 to 7.00 | 5.00 to 6.00
